Data on 1 molecule can be found in paper PMC7887271, “Fast acting allosteric phosphofructokinase inhibitors block trypanosome glycolysis and cure acute African trypanosomiasis in mice” (Nature Communications, 2021).

In one series the target is T1, hPFK-P (Homo sapiens, UniProt Q01813).
T1 construct: made in house; host or cells: PFK-deficient Saccharomyces cerevisiae
T1 sequence (Q01813 1-784): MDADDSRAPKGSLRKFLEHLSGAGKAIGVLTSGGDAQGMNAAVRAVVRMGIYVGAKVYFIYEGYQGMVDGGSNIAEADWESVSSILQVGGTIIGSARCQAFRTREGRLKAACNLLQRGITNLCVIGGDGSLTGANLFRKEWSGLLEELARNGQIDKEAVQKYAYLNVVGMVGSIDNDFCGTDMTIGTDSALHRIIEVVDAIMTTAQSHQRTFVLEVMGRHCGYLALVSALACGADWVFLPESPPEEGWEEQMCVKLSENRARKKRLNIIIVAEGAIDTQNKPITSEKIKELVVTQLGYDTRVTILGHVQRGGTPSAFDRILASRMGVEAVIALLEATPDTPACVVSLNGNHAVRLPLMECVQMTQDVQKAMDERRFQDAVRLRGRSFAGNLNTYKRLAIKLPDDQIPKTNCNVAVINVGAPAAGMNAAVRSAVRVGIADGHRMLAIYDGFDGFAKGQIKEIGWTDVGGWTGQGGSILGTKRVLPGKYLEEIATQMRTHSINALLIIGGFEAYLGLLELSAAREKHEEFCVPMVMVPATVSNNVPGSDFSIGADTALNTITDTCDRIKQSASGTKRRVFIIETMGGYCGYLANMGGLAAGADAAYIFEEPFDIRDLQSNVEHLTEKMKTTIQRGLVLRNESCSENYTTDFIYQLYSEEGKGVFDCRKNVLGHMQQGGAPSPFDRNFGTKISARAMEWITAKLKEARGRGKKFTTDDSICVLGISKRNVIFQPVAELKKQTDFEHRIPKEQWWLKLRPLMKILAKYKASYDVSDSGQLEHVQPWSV
As to the kind of experiment: ALDO/G3PDH/TIM linked enzyme assay, human PFK-P. The class given is biochemical. To be noted: aldolase/TIM linked assay, 25 °C; highest concentration 100 µM. As to the method: Enzyme activity was measured using an aldolase/TIM linked assay at 25 °C. […] Experiments were carried out in duplicate. Data are presented as mean values ± standard deviation. […] Source data are provided as a Source Data File. b Kill time of CTCB-405 compared with existing HAT drugs in the clinic. […] Over 99% of trypanosomes were killed in under 30 min compared with much slower killing rates for the other drugs. The points on the graph for CTCB-405 were determined from two independent biological replicate experiments with each time point measured twice (using duplicate technical replicates). The ESD for each point on the graph is between 0.7 and 1.4%. For drugs in clinical use each point on the graph is the average of two technical replicates from one experiment (with a maximum difference of 7.8% for any of the points). Source data are provided as a Source Data File.
In the PFK/PYK/LDH assay, the linked PYK activity acts to convert the ADP produced by PFK back to ATP. As ATP is an inhibitor of human PFK (but not TbPFK) at concentrations higher than ~0.5 mM the regeneration of ATP is likely to affect the assay readout. […] TIM interconverts GA3P and DHAP, and DHAP is reduced to glycerol 3-phosphate by G3PD, alongside the oxidation of NADH to NAD^+, which was measured by observing the change in UV absorbance at 340 nm for 10 minutes at 25° C using a Spectramax© M5 Multimode plate reader. […]

In the next series the target is T2, TbPFK (Trypanosoma brucei brucei, UniProt O15648).
T2 construct: made in house; host or cells: Escherichia coli C41 (pET28a, codon optimised gene)
T2 sequence (O15648 1-487): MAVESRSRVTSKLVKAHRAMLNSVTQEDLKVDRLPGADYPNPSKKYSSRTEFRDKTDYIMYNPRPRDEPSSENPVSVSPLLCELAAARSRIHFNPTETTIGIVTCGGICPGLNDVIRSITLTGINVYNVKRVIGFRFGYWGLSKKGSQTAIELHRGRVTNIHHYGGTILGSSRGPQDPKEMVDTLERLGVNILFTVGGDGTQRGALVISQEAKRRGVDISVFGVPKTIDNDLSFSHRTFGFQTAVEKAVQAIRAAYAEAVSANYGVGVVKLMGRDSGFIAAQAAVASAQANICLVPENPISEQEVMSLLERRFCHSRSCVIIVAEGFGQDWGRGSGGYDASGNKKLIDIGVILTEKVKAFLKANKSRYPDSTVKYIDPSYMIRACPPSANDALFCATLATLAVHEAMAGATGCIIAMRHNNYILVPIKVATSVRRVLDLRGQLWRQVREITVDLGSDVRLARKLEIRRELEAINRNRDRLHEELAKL
As to the kind of experiment: Isothermal titration calorimetry (ITC). Format: binding. Conditions: 25 °C. Background: Isothermal titration calorimetry measures the heat released or taken up as one component is titrated into another.

The nature of series [1]: Human hepatocytes intrinsic clearance. The class given is in vitro ADME. An excerpt: Methods are described in Supplementary Methods 5 and 6. Enzyme assay results are means ± SD in multiple assays. ADME results are averages of n = 2 or 3 measurements in individual assays.

Structures are written as SMILES.

Broadly, the Kd is the equilibrium constant for the complex coming apart. Read a low Kd as tighter binding. Turning to `CN(C)CCn1ccc2c(ccn2Cc2ccc(Cl)c(Cl)c2)c1=O` [CTCB-405, 1-[(3,4-Dichlorophenyl)methyl]-5-[2-(dimethylamino)ethyl] pyrrolo[3,2-c]pyridin-4-one], the “inhibition of hPFK-P” value against hPFK-P is “no significant inhibition”. The same molecule had a Kd at TbPFK of 92 nM. Besides, on TbPFK (ITC), the TΔS contribution was -4.03 kcal/mol, the ΔG was -9.57 kcal/mol and the ΔH is -13.6 kcal/mol. Besides, the “Human hepatocytes Clint” value in series [1] is reported as 2.3 µL min^−1 per 10^6 cells.
